Source: patent US11597724B2, “Herbicidally active 3-phenylisoxazoline-5-carboxamides of tetrahydro and dihydrofuran carboxylic acids and esters” (Bayer Aktiengesellschaft, priority 2017, dated 2023)

Columns and labels:
Type in all cases: in vivo
Lolium rigidum = test: Pre-emergence herbicidal activity against LOLRI; settings: dosage 80 g/ha; for pest or weed control at 80 g/ha: Lolium rigidum, 504 h
Text: (§1) 1. Pre-Emergence Herbicidal Action and Crop Plant Compatibility Seeds of monocotyledonous and dicotyledonous weed plants and crop plants are placed in plastic or wood fiber pots and covered with soil. The compounds of the invention, formulated in the form of wettable powders (WP) or as emulsion concentrates (EC), are then applied onto the surface of the covering soil as aqueous suspension or emulsion with addition of 0.5% additive at a water application rate of 600 l/ha (converted). After the treatment, the pots are placed in a greenhouse and kept under good growth conditions for the trial plants. After about 3 weeks, the effect of the preparations is scored visually in comparison with untreated controls as percentages. For example, 100% activity=the plants have died, 0% activity=like control plants. LOLRI: Lolium rigidum PHBPU: Pharbitis purpurea

Viola tricolor = test: Pre-emergence herbicidal activity against VIOTR; settings: dosage 80 g/ha
Text: as §1, with “VIOTR: Viola tricolor” for “LOLRI: Lolium rigidum PHBPU: Pharbitis purpurea”

Hordeum murinum = test: Pre-emergence herbicidal activity against HORMU; settings: dosage 80 g/ha; for pest or weed control at 80 g/ha: Hordeum murinum, 504 h
Text: as §1, with “ECHCG: Echinochloa crus-galli HORMU: Hordeum murinum” for “LOLRI: Lolium rigidum PHBPU: Pharbitis purpurea”

Echinochloa crus-galli = test: Pre-emergence herbicidal activity against ECHCG; settings: dosage 80 g/ha, scored visually after about 3 weeks vs untreated controls (100% = plants have died, 0% = like control plants); for pest or weed control at 80 g/ha: Echinochloa crus-galli, 504 h
Text: as §1, with “ECHCG: Echinochloa crus-galli HORMU: Hordeum murinum” for “LOLRI: Lolium rigidum PHBPU: Pharbitis purpurea”

[1] = Pre-emergence treatment, summary over harmful plants; settings: 504 h, application rate of 0.08 kg of active substance or less per hectare, read-out: herbicidal action, pre-emergence treatment (very good activity)
Text: 1. Pre-Emergence Herbicidal Action and Crop Plant Compatibility
as §1, with “Seeds” for “1. Pre-Emergence Herbicidal Action and Crop Plant Compatibility Seeds”, “plants.” for “plants. LOLRI: Lolium rigidum PHBPU: Pharbitis purpurea”
As shown by the results, compounds according to the invention such as, for example, the compounds No. I-21 and other compounds from the tables (for example I-10, I-26, I-09, I-30, I-28, I-29, I-27, I-01, I-06, I-34, I-19, I-11, I-36, I-37, I-38, I-41, I-42, I-43, I-44, I-46, I-49) have, when used for pre-emergence treatment, very good activity (80% to 100% herbicidal action) against harmful plants such as Abutilon theophrasti, Alopecurus myosuroides, Amaranthus retroflexus, Avena fatua, Echinochloa crus-galli, Hordeum murinum, Lolium rigidum, Pharbitis purpurea, Polygonum convolvulus, Setaria viridis, Stellaria media, Veronica persica and Viola tricolor at an application rate of 0.08 kg of active substance or less per hectare.

For `C=C[C@]1(C(=O)N[C@H]2CO[C@@H](C(=O)OCC)C2)CC(c2cc(F)cc(F)c2)=NO1` (mixture of isomers) [I-35, ethyl cis-4-[[(5S)-3-(3,5-difluorophenyl)-5-vinyl-4H-isoxazole-5-carbonyl]amino]tetrahydrofuran-2-carboxylate], the pest or weed control at 80 g/ha (Lolium rigidum) was 100%, the “Pre-emergence herbicidal activity against VIOTR in %” value (Viola tricolor) was 100% and the pest or weed control at 80 g/ha (Hordeum murinum) was 100%. The pest or weed control at 80 g/ha (Echinochloa crus-galli) was 100%.
For `CC1(C(=O)NC2COC(C(=O)O)C2)CC(c2cc(F)cc(F)c2)=NO1` (mixture of isomers) [I-41], the “Pre-emergence herbicidal activity against LOLRI in %” value (Lolium rigidum) was 100%, the “Pre-emergence herbicidal activity against HORMU in %” value (Hordeum murinum) was 100% and the “Pre-emergence herbicidal activity against ECHCG in %” value (Echinochloa crus-galli) was 100%.
For `CC(C)(C)OC(=O)C1CC(NC(=O)C2(C)CC(c3cc(F)cc(F)c3)=NO2)CO1` (mixture of isomers) [I-42], the “Pre-emergence herbicidal activity against LOLRI in %” value (Lolium rigidum) was 100%, the “Pre-emergence herbicidal activity against VIOTR in %” value (Viola tricolor) was 100% and the “Pre-emergence herbicidal activity against HORMU in %” value (Hordeum murinum) was 100%. The “Pre-emergence herbicidal activity against ECHCG in %” value (Echinochloa crus-galli) was 100%.
In the case of `CCOC(=O)C1CC(NC(=O)C2(C)CC(c3cc(F)cc(F)c3)=NO2)CO1` (mixture of isomers) [I-43], the “Pre-emergence herbicidal activity against LOLRI in %” value (Lolium rigidum) is reported as 100%, the “Pre-emergence herbicidal activity against VIOTR in %” value (Viola tricolor) is reported as 90% and the “Pre-emergence herbicidal activity against HORMU in %” value (Hordeum murinum) is reported as 90%. The “Pre-emergence herbicidal activity against ECHCG in %” value (Echinochloa crus-galli) was 100%.
With `CC1(C(=O)NC2COC(C(=O)OCc3ccccc3)C2)CC(c2cc(F)cc(F)c2)=NO1` (mixture of isomers) [I-45] the “Pre-emergence herbicidal activity against LOLRI in %” value (Lolium rigidum) was 100%, the “Pre-emergence herbicidal activity against VIOTR in %” value (Viola tricolor) was 100% and the “Pre-emergence herbicidal activity against HORMU in %” value (Hordeum murinum) was 100%. The “Pre-emergence herbicidal activity against ECHCG in %” value (Echinochloa crus-galli) was 100%.
For `COC(=O)C1CC(NC(=O)C2(C)CC(c3cc(F)cc(F)c3)=NO2)CO1` (mixture of isomers) [I-48], the “Pre-emergence herbicidal activity against LOLRI in %” value (Lolium rigidum) was 100%, the “Pre-emergence herbicidal activity against VIOTR in %” value (Viola tricolor) was 100% and the “Pre-emergence herbicidal activity against HORMU in %” value (Hordeum murinum) was 100%. The “Pre-emergence herbicidal activity against ECHCG in %” value (Echinochloa crus-galli) was 90%.
Work on `CCOC(=O)[C@H]1C[C@@H](NC(=O)C2(C)CC(c3cccc(F)c3)=NO2)CO1` (mixture of isomers) [I-30, ethyl cis-4-[[(5RS)-3-(3-fluorophenyl)-5-methyl-4H-isoxazole-5-carbonyl]amino]tetrahydrofuran-2-carboxylate] yielded a pest or weed control at 80 g/ha (Lolium rigidum) of 100%, a pest or weed control at 80 g/ha (Hordeum murinum) of 90% and a pest or weed control at 80 g/ha [1] of 80 to 100%.
With `CC(C)OC(=O)[C@H]1C[C@@H](NC(=O)C2(C)CC(c3cccc(F)c3)=NO2)CO1` (mixture of isomers) [I-32, isopropyl cis-4-[[(5RS)-3-(3-fluorophenyl)-5-methyl-4H-isoxazole-5-carbonyl]amino]tetrahydrofuran-2-carboxylate] the pest or weed control at 80 g/ha (Lolium rigidum) was 100%.
`CC(C)(C)OC(=O)[C@H]1C[C@@H](NC(=O)C2(C)CC(c3cccc(F)c3)=NO2)CO1` (mixture of isomers) [I-33, tert-butyl cis-4-[[(5RS)-3-(3-fluorophenyl)-5-methyl-4H-isoxazole-5-carbonyl]amino]tetrahydrofuran-2-carboxylate] gave a pest or weed control at 80 g/ha (Hordeum murinum) of 80%.
`CC1(C(=O)N[C@H]2CO[C@@H](C(=O)OCc3ccccc3)C2)CC(c2cccc(F)c2)=NO1` (mixture of isomers) [I-34, benzyl cis-4-[[(5RS)-3-(3-fluorophenyl)-5-methyl-4H-isoxazole-5-carbonyl]amino]tetrahydrofuran-2-carboxylate] gave a pest or weed control at 80 g/ha (Lolium rigidum) of 100%, a pest or weed control at 80 g/ha [1] of 80 to 100% and a pest or weed control at 80 g/ha (Echinochloa crus-galli) of 80%.
For `COC(=O)[C@H]1C[C@@H](NC(=O)C2(C)CC(c3cc(F)cc(F)c3)=NO2)CO1` (relative stereo) [I-01, methyl cis-4-[[3-(3,5-difluorophenyl)-5-methyl-4H-isoxazole-5-carbonyl]amino]tetrahydrofuran-2-carboxylate], the pest or weed control at 80 g/ha [1] was 80 to 100% and the pest or weed control at 80 g/ha (Echinochloa crus-galli) was 80%.
`C=CC1(C(=O)N[C@H]2CO[C@@H](C(=O)O)C2)CC(c2cc(F)cc(F)c2)=NO1` (relative stereo) [I-21, cis-4-[[3-(3,5-difluorophenyl)-5-vinyl-4H-isoxazole-5-carbonyl]amino]tetrahydrofuran-2-carboxylic acid] gave a pest or weed control at 80 g/ha [1] of 80 to 100% and a pest or weed control at 80 g/ha (Echinochloa crus-galli) of 100%.
In the case of `C=C[C@]1(C(=O)N[C@H]2CO[C@@H](C(=O)OC)C2)CC(c2cc(F)cc(F)c2)=NO1` (single isomer, unassigned) [I-12], the pest or weed control at 80 g/ha (Lolium rigidum) is reported as 100%, the “Pre-emergence herbicidal activity against VIOTR in %” value (Viola tricolor) is reported as 100% and the pest or weed control at 80 g/ha (Hordeum murinum) is reported as 100%. It also gave a pest or weed control at 80 g/ha (Echinochloa crus-galli) of 90%.
In the case of `COC(=O)C1COCC1NC(=O)C1(C)CC(c2cc(F)cc(F)c2)=NO1` (stereo not drawn) [I-19, methyl 4-[[3-(3,5-difluorophenyl)-5-methyl-4H-isoxazole-5-carbonyl]amino]tetrahydrofuran-3-carboxylate], the pest or weed control at 80 g/ha [1] is reported as 80 to 100%.
`C=C[C@]1(C(=O)NC2COCC2C(=O)OC)CC(c2cc(F)cc(F)c2)=NO1` (stereo partly drawn) [I-26, methyl 4-[[(5S)-3-(3,5-difluorophenyl)-5-vinyl-4H-isoxazole-5-carbonyl]amino]tetrahydrofuran-3-carboxylate] gave a pest or weed control at 80 g/ha [1] of 80 to 100% and a pest or weed control at 80 g/ha (Echinochloa crus-galli) of 90%.
Work on `COC(=O)C1COCC1NC(=O)[C@@]1(C)CC(c2cc(F)cc(F)c2)=NO1` (stereo partly drawn) [I-28, methyl 4-[[(5R)-3-(3,5-difluorophenyl)-5-methyl-4H-isoxazole-5-carbonyl]amino]tetrahydrofuran-3-carboxylate] yielded a pest or weed control at 80 g/ha [1] of 80 to 100% and a pest or weed control at 80 g/ha (Echinochloa crus-galli) of 90%.
For `COC(=O)C1COCC1NC(=O)C1(OC)CC(c2cc(Cl)cc(Cl)c2)=NO1` (stereo not drawn) [I-29, methyl 4-[[3-(3,5-dichlorophenyl)-5-methoxy-4H-isoxazole-5-carbonyl]amino]tetrahydrofuran-3-carboxylate], the pest or weed control at 80 g/ha [1] was 80 to 100%.
Work on `COC(=O)C1=C[C@H](NC(=O)C2(C)CC(c3cccc(F)c3)=NO2)CO1` (stereo partly drawn) [I-39, methyl (3S)-3-[[3-(3-fluorophenyl)-5-methyl-4H-isoxazole-5-carbonyl]amino]-2,3-dihydrofuran-5-carboxylate] yielded a pest or weed control at 80 g/ha (Lolium rigidum) of 100% and a pest or weed control at 80 g/ha (Hordeum murinum) of 100%.
With `CC(C)OC(=O)C1CC(NC(=O)C2(C)CC(c3cc(F)cc(F)c3)=NO2)CO1` (stereo not drawn) [I-44] the “Pre-emergence herbicidal activity against LOLRI in %” value (Lolium rigidum) was 100%, the “Pre-emergence herbicidal activity against VIOTR in %” value (Viola tricolor) was 80% and the “Pre-emergence herbicidal activity against HORMU in %” value (Hordeum murinum) was 100%. The “Pre-emergence herbicidal activity against ECHCG in %” value (Echinochloa crus-galli) was 90%.
For `COC(=O)C1=C[C@@H](NC(=O)C2(C)CC(c3cccc(F)c3)=NO2)CO1` (stereo partly drawn) [I-46, methyl (3R)-3-[[3-(3-fluorophenyl)-5-methyl-4H-isoxazole-5-carbonyl]amino]-2,3-dihydrofuran-5-carboxylate], the pest or weed control at 80 g/ha (Lolium rigidum) was 100%, the pest or weed control at 80 g/ha (Hordeum murinum) was 100% and the pest or weed control at 80 g/ha [1] was 80 to 100%. The pest or weed control at 80 g/ha (Echinochloa crus-galli) was 90%.
`COC(=O)[C@@]1(OC)C[C@@H](NC(=O)C2(C)CC(c3cccc(F)c3)=NO2)CO1` (stereo partly drawn) [I-47, methyl (2R,4R)-4-[[3-(3-fluorophenyl)-5-methyl-4H-isoxazole-5-carbonyl]amino]-2-methoxytetrahydrofuran-2-carboxylate] showed a pest or weed control at 80 g/ha (Hordeum murinum) of 90%.
For `COC(=O)C1CC(NC(=O)C2(C(C)(F)F)CC(c3cc(F)cc(F)c3)=NO2)CO1` (stereo not drawn) [I-49], the “Pre-emergence herbicidal activity against LOLRI in %” value (Lolium rigidum) was 100%, the “Pre-emergence herbicidal activity against VIOTR in %” value (Viola tricolor) was 100% and the “Pre-emergence herbicidal activity against HORMU in %” value (Hordeum murinum) was 100%. For the same compound, the “Pre-emergence herbicidal activity against ECHCG in %” value (Echinochloa crus-galli) was 100%.
